In one series the target is T1, Psip1 (Prochlorococcus marinus, UniProt Q7V066).
T1 construct: gene PMM1416; predicted signal peptide removed; codon-optimized; pET-23a(+), C-terminal His-tag; E. coli BL21(DE3); reconstituted with Fe and Ca
T1 sequence (Q7V066 24-694): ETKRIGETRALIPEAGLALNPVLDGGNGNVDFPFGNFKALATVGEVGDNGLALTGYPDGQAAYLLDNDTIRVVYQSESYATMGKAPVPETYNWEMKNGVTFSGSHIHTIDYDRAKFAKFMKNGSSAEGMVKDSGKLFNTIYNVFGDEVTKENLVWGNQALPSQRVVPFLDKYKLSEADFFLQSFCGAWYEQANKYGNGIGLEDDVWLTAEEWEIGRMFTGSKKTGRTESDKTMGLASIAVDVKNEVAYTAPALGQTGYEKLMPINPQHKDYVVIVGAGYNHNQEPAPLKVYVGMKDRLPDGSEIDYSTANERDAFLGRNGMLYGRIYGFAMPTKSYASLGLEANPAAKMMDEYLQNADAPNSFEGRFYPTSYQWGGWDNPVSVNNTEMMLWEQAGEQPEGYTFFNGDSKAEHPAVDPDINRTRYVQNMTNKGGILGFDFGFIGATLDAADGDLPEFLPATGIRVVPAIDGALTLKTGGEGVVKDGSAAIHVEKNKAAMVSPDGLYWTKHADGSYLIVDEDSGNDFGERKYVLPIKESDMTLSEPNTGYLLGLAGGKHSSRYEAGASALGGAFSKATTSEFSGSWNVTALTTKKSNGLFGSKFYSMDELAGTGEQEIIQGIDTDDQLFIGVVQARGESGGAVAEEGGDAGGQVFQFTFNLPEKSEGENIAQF
Put plainly: inhibition of MUF release from MUF-P. Type of series: biochemical. Conditions: competing with MUF-P; estimated Ki; Fe(III) and Ca2+; Pi release by phosphomolybdate assay. The source says:
inhibition of MUF release from […] on Psip1 | natural organic P compounds: glycerol-1-phosphate (G1P) | glycerol-3-phosphate (G3P) | phosphocholine (PC) | phosphorylethanolamine (PE) | adenosine monophosphate (AMP) | glucosamine-6-phosphate (Ga6P) by measuring the inhibition of MUF release from […]

Substrate in series [1]: O=[N+]([O-])c1ccc(OP(=O)(O)O)cc1
Put plainly: purified protein. The conditions noted are these: pH 9.8, Fe(III) and Ca2+, 30 °C. Type of series: biochemical, Prochlorococcus marinus.

Substrate in series [2]: Cc1cc(=O)oc2cc(OP(=O)(O)Oc3ccc4c(C)cc(=O)oc4c3)ccc12
Briefly: purified protein. The conditions noted are these: pH 8.8, Fe(III) and Ca2+, 30 °C, phosphodiesterase activity.

As usually defined, the Ki is the dissociation constant of the complex between target and ligand, obtained from inhibition or displacement. `O=P(O)(O)OC[C@H](O)CO` [glycerol-3-phosphate]: the Ki on Psip1 is 0.79 ± 0.15 µM. For `NCCOP(=O)(O)O` [phosphorylethanolamine], the Ki on Psip1 is given as 4.46 ± 1.08 µM. Turning to `C[N+](C)(C)CCOP(=O)([O-])O` [phosphocholine], at Psip1, the inhibition constant Ki was 2.20 ± 0.37 µM. The same measure, in the same setting: the result for `O=P(O)(O)OCC(O)CO` (centres unmarked) [glycerol-1-phosphate] reads 1.20 ± 0.20 µM; that for `Nc1ncnc2c1ncn2[C@@H]1O[C@H](COP(=O)(O)O)[C@@H](O)[C@H]1O` [adenosine monophosphate], 1.52 ± 0.22 µM. With `N[C@H]1C(O)O[C@H](COP(=O)(O)O)[C@@H](O)[C@@H]1O` (some centres unmarked) [glucosamine-6-phosphate], at Psip1, the Ki was 0.60 ± 0.11 µM.

B1: Psip1 (Prochlorococcus marinus subsp. pastoris str. CCMP1986) (protein)
chain: ETKRIGETRALIPEAGLALNPVLDGGNGNVDFPFGNFKALATVGEVGDNGLALTGYPDGQAAYLLDNDTIRVVYQSESYATMGKAPVPETYNWEMKNGVTFSGSHIHTIDYDRAKFAKFMKNGSSAEGMVKDSGKLFNTIYNVFGDEVTKENLVWGNQALPSQRVVPFLDKYKLSEADFFLQSFCGAWYEQANKYGNGIGLEDDVWLTAEEWEIGRMFTGSKKTGRTESDKTMGLASIAVDVKNEVAYTAPALGQTGYEKLMPINPQHKDYVVIVGAGYNHNQEPAPLKVYVGMKDRLPDGSEIDYSTANERDAFLGRNGMLYGRIYGFAMPTKSYASLGLEANPAAKMMDEYLQNADAPNSFEGRFYPTSYQWGGWDNPVSVNNTEMMLWEQAGEQPEGYTFFNGDSKAEHPAVDPDINRTRYVQNMTNKGGILGFDFGFIGATLDAADGDLPEFLPATGIRVVPAIDGALTLKTGGEGVVKDGSAAIHVEKNKAAMVSPDGLYWTKHADGSYLIVDEDSGNDFGERKYVLPIKESDMTLSEPNTGYLLGLAGGKHSSRYEAGASALGGAFSKATTSEFSGSWNVTALTTKKSNGLFGSKFYSMDELAGTGEQEIIQGIDTDDQLFIGVVQARGESGGAVAEEGGDAGGQVFQFTFNLPEKSEGENIAQF
notes: predicted signal peptide removed; codon-optimized; pET-23a(+), C-terminal His-tag; E. coli BL21(DE3); reconstituted with Fe and Ca
One may read the Km as the substrate concentration at which the rate is half of its maximum. On to B1, for which the Km is 2.5 ± 1.18 µM in “purified protein [1]” and 46.1 ± 5.72 µM in “purified protein [2]”.

(Values after publication PMC11098088, “A distinct, high-affinity, alkaline phosphatase facilitates occupation of P-depleted environments by marine picocyanobacteria” (Proceedings of the National Academy of Sciences of the …, 2024).)
